Tests used:
S. typhimurium ST19 [1] = experiment: Invasion and infection efficiency in HeLa cells; assay type: cell-based; details: 31.25 μM ARM-1, compared to untreated WT
Procedure: (§1) FIGS. 3A-3C depict how ARM-1 reduces mutation frequency in culture and during infection. FIG. 3A depicts a Luria-Delbruck fluctuation assay with ARM-1 treatment. Single colonies of WT and Δmfd S. typhimurium ST19 were used to inoculate overnight cultures with appropriate antibiotic selection. Cultures were then diluted back to OD600 0.0005 and grown to OD600 0.5 with or without 100 μM ARM-1 treatment. Samples were plated on 80 ng/ml ciprofloxacin and grown overnight, then enumerated the following day. Data shown are the result of a minimum of 50 replicates. FIG. 3B depicts the invasion and infection efficiency in the presence of ARM-1. WT S. typhimurium ST19 in mid-log phase growth was used to infect HeLa cells. Invasion was allowed to proceed for 1 hour before uninternalized bacteria were removed and fresh media applied, containing vehicle control or 31.25 μM ARM-1. At the indicated timepoints, HeLa cells were lysed using 1% Triton-H2O and intracellular bacteria serially diluted and plated on LB for CFU enumeration. FIG. 3C depicts mutation frequency post mammalian cell infection. WT and Δmfd S. typhimurium ST19 were used to infect HeLa cells as described in FIG. 3B. Following infection, intracellular bacteria were harvested and plated on 50 μg/mL 5-fluorocytosine and grown overnight. Mutants were enumerated the following morning. […]

S. typhimurium = experiment: Growth curves with increasing concentrations of ARM-1; assay type: cell-based
Procedure: (§2) FIG. 10 depicts growth curves of indicated species in the presence of increasing concentrations of ARM-1. Precultures of each species were grown with appropriate antibiotic selection, then diluted back to OD600 0.05 in a 96 well plate. Indicated concentrations of ARM-1 were added, and plates incubated overnight at 37° C. with shaking. OD measurements taken every 60 s by BioTek plate reader. Data shown are representative of at least 6 biological replicates. Growth curve for S. typhimurium also confirms MIC of 400 μM ARM-1 for this species, with no growth observed over the experimental timeframe.

all species tested = experiment: as above; assay type: cell-based; details: across all species tested
Procedure: as §2

Mfd = Mfd (Salmonella typhimurium, UniProt Q8ZQ01); experiment: Binding affinity analysis by microscale thermophoresis; set-up: species or system S. typhimurium; details: labeled Mfd 50 nM
Chain of Mfd (Q8ZQ01 entry or part of it): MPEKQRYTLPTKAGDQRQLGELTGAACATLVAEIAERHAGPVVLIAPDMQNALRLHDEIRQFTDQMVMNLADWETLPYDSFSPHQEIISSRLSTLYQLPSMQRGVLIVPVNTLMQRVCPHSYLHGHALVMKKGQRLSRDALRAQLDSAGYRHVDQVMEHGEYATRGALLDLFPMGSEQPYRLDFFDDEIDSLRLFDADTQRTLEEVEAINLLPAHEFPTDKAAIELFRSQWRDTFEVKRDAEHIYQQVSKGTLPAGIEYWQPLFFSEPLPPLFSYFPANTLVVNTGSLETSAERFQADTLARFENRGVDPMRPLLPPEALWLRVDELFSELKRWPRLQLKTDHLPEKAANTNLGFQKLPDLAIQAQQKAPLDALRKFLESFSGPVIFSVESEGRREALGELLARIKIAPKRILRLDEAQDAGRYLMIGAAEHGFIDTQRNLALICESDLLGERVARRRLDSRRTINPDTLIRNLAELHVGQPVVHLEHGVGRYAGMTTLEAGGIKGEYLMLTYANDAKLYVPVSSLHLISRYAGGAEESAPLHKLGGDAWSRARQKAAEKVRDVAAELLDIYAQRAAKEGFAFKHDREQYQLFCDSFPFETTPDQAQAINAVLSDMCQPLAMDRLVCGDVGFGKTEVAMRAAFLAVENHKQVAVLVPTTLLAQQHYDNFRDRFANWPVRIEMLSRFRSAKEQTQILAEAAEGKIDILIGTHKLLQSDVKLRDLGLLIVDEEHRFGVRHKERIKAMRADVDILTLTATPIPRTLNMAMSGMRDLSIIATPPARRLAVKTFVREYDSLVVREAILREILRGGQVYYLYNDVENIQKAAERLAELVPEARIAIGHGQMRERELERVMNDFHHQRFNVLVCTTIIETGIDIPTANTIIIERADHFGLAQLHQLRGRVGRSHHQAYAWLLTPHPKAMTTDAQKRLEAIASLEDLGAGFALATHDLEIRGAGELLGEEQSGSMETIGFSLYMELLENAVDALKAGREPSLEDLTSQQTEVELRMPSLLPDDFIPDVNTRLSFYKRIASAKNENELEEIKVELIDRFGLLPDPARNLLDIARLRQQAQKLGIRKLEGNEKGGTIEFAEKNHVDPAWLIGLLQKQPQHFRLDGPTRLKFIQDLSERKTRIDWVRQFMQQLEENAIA
Procedure: FIGS. 2A-2D depict how ARM-1 affects Mfd's biochemical activity. FIG. 2A depicts how the kd of ARM-1 was determined using microscale thermophoresis. Data shown represent a minimum of three independent experiments. FIG. 2B depicts a NADH-coupled ATPase assay. ATP hydrolysis by Mfd was coupled to NADH oxidation. Phosphoenolpyruvate is converted to pyruvate by pyruvate kinase, transferring a phosphate group onto ADP, which is only present in the reaction following ATP hydrolysis by Mfd. Pyruvate is then converted to lactate by lactate dehydrogenase, oxidizing NADH to NAD^+. Absorbance at 340 nm by NADH is used to monitor the reaction. Data shown represent a minimum of 3 biological replicates. FIG. 2C depicts a transcription roadblock assay. A P32-labled 176 bp PCR fragment was incubated with E. coli RNAP along with saturating concentrations of ATP, GTP, and UTP. 100 nM S. typhimurium ST19 Mfd preincubated with indicated concentrations of ARM-1 was added and the reaction allowed to proceed for 6 minutes. DNA products were then resolved on a polyacrylamide gel and analyzed by phosphorimaging. […] Quantification of these gels is shown below each lane. […]
Microscale thermophoresis was performed on a Monolith (NanoTemper). […] MST experiments were performed under default settings apart from fluorescence intensity set to 100%. […]

S. typhimurium ST19 [2] = experiment: Luria-Delbruck fluctuation assay; assay type: cell-based; details: 100 μM ARM-1, plated on 80 ng/ml ciprofloxacin
Procedure: as §1

In the case of `Cc1cc(Br)ccc1-c1ccc(CNCCCN(C)C)o1` [ARM-1, N^1-((5-(4-bromo-2-methylphenyl)furan-2-yl)methyl)-N^3,N^3-dimethylpropane-1,3-diamine], the “defect in invasion or proliferation in HeLa cells” value (S. typhimurium ST19 [1]) is reported as “Neither the Δmfd mutant nor ARM-1 or solvent-treated wild-type or Δmfd strains show a defect in invasion or proliferation”, the MIC (S. typhimurium; Salmonella enterica, TYPHIMURIUM, growth curve, no growth observed over the experimental timeframe) is reported as 400 µM and the growth defects (S. typhimurium; at the ARM-1 concentrations used for ChIP) is reported as “no growth defects”. For the same molecule, the “doubling time, treated versus untreated population” value (all species tested) was “consistent”, the Kd (Mfd) was 4.25 µM and the “reduction in WT mutation frequency” value (S. typhimurium ST19 [2]) was 3 fold.

Source: patent US20260015333A1, “COMPOUNDS AND METHODS FOR INHIBITION OF THE EVOLUTION OF […]” (priority 2022, published 2026)
